Measured values reported in patent US10077288B2, “Hydroxystatin derivatives for the treatment of arthrosis” (Merck Patent GmbH, priority 2012, dated 2018).
*1 amine or outer side, *2 acyl side, *3 side chain or, on linkers, in order; H or OH if unused. Where a SMILES comes first, the peptide text is derived from it. [ ]: non-standard residue; d: D form. The star is where a group is joined. Ahppa(3S,4S) = O=C(C[C@H](O)[C@H](Cc1ccccc1)N[*:1])[*:2]; PhAc = O=C(Cc1ccccc1)*; OBn = c1ccc(CO*)cc1

Experiments:
recombinant human renin = molecular target: T1, recombinant human renin (Homo sapiens, UniProt P00797); assay: In-vitro fluorescence assay for identification of renin-inhibitory activity; assay type: biochemical; conditions: recombinant human renin 10 nM, FRET substrate 5 μM, pH 7.2; read-out: Renin selectivity IC50
T1 construct: purchased Proteos, Kalamazoo, Mich
T1 sequence (P00797 67-406): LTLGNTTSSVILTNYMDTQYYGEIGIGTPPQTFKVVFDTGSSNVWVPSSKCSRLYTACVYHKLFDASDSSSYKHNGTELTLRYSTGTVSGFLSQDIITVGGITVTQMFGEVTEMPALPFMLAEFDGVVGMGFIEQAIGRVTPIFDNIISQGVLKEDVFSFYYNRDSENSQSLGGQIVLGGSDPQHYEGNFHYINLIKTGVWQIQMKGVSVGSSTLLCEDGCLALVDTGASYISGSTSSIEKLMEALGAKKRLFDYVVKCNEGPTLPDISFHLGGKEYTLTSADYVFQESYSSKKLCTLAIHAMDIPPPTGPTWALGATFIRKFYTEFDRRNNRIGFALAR
Experimental: EXAMPLE 8: IN-VITRO FLUORESCENCE ASSAY FOR IDENTIFICATION OF RENIN-INHIBITORY ACTIVITY
In order to identify modulators of renin activity, a continuous enzymatic test was carried out with a synthetic peptide which carries a fluorescent group Edans (=(5-(aminoethyl)aminonaphthalenesulfonate) which is quenched by energy transfer from a Dabcyl (4′-dimethylaminoazobenzene-4-carboxylate) group on the same molecule, in Greiner 384-well microtitre plates. Cleavage of the peptidic substrate by renin causes an increase in the fluorescence intensity. In order to determine the efficacy of substances, the time-dependent increase in the fluorescence intensity in the presence of the substance was compared with the time-dependent increase in fluorescence in the absence of substances. The reference substance used was renin inhibitor 2 (Z-Arg-Arg-Pro-Phe-His-Sta-Ile-His N-Boc-Lys methyl ester Z) (Sigma-Aldrich). The substrate used was renin FRET substrate I (DABCYL-g-Abu-Ile-His-Pro-Phe-His-Leu-Val-Ile-His-Thr-EDANS) (Anaspec, Fremont Calif.). The enzyme employed was recombinant human renin (Pro-teos, Kalamazoo, Mich.) in a final concentration of 10 nM. The test was carried out in 50 mM Mops buffer, 1.5% (v/v) of DMSO, 0.1% (w/v) of Igepal®, pH 7.2, 0.5% (w/v) of BSA. 2 μl of each substance solution with serially diluted substance concentration were added to in each case 4 μl of renin solution and incubated at room temperature for 15 min. The reaction was started by addition of 4 μl of substrate solution (final concentration 5 μM). After carrying out a starting-point fluorescence measurement (excitation wavelength 340 nm/emission wavelength 495 nm) using an Envision multilabel reader (Perkin Elmer), the reaction was incubated at 37° C. for 60 min. The amount of peptide fragment cleaved off during the reaction time was subsequently measured by determination of the increase in the fluorescence intensity at 495 nm (excitation wavelength 340 nm).
Result: all compounds measured have an IC50 of the renin selectivity of >30 μM (see Table 2 in Example 1).

[1] = molecular target: T2, cathepsin D isolated from the human liver (Homo sapiens, UniProt P07339); assay: In-vitro fluorescence assay for identification of cathepsin D inhibitors; assay type: biochemical; conditions: human liver cathepsin D 1.4 nM, pH 5.5; read-out: CatD assay IC50-(M)
T2 construct: cathepsin D isolated from the human liver (Sigma-Aldrich); purchased Sigma-Aldrich; host or cells: human liver (tissue-derived, not recombinant)
Experimental: EXAMPLE 4: IN-VITRO FLUORESCENCE ASSAY FOR IDENTIFICATION OF CATHEPSIN D INHIBITORS
In order to identify modulators of cathepsin D activity, a continuous enzymatic test was carried out with a synthetic peptide which carries a fluorescent group (MCA=(7-methoxycoumarin-4-yl)acetyl) which is quenched by energy transfer from a Dpn (2,4 dinitrophenyl) group on the same molecule, in Greiner 384-well nb microtitre plates. Cleavage of the peptidic substrate by cathepsin D causes an increase in the fluorescence intensity. In order to determine the efficacy of substances, the time-dependent increase in the fluorescence intensity in the presence of the substance was compared with the time-dependent increase in fluorescence in the absence of substances. The reference substance used was pepstatin A (Sigma-Aldrich). The substrate used was MCA-GKPILFFRLK(Dnp)d-R—NH2 (Enzo Life Sciences, Lörrach). The enzyme employed was cathepsin D isolated from the human liver (Sigma-Aldrich) in a final concentration of 1.4 nM. The test was carried out in 100 mM sodium acetate buffer, 1.25% (v/v) of DMSO, 0.25% (w/v) of Chaps, pH 5.5. 2 μl of each substance solution with serially diluted substance concentration were added to in each case 4 μl of cathepsin D solution and incubated at room temperature for 10 min. The reaction was started by addition of 2 μl of substrate solution (final concentration 5 μM). After carrying out a starting-point fluorescence measurement (excitation wavelength 340 nm/emission wavelength 450 nm) using an Envision multilabel reader (Perkin Elmer), the reaction was incubated at room temperature for 60 min. The amount of peptide fragment cleaved off during the reaction time was subsequently measured by determination of the increase in the fluorescence intensity at 450 nm (excitation wavelength 340 nm).

T2 sequence (P07339 65-161 limits assumed): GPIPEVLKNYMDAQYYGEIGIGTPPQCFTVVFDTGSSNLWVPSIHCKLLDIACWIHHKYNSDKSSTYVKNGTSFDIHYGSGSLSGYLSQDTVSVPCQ
T2 sequence (P07339 169-412 limits assumed): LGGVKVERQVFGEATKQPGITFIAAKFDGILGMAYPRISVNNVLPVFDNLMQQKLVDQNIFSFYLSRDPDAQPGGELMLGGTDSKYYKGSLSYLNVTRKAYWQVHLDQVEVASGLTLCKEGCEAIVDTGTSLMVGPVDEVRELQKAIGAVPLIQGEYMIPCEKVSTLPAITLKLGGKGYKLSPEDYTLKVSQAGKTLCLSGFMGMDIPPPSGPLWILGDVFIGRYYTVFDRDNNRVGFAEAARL

| Structure (SMILES) | IC50 (recombinant human renin) [nM] | IC50 [1] [M] |
| --- | --- | --- |
| CC[C@H](C)[C@H](NC(=O)C[C@H](O)[C@H](Cc1ccccc1)NC(=O)[C@@H](NC(=O)C(C)(C)Oc1ccc2ccccc2c1)C(C)C)C(=O)N[C@H](C(=O)OCc1ccccc1)C(C)C [Compound 3, benzly (S)-2-[(2S,3S)-2-((3S,4S)-3-hydroxy-4-{(S)-3-methyl-2-[2-methyl-2-(naphthalen-2-yloxy)propionylamino]butyrylamino}-5-phenylpentanoylamino)-3-methylpentanoylamino]-3-methylbutyrate] | > 30000 | 2.3e-07 |
| CC[C@H](C)[C@H](NC(=O)C[C@H](O)[C@H](Cc1ccccc1)NC(=O)[C@@H](NC(=O)[C@H](CC(C)C)NC(=O)Cc1ccccc1)C(C)C)C(=O)N[C@H](C(=O)OCc1ccccc1)C(C)C [Compound 44, benzyl (S)-2-((2S,3S)-2-{(3S,4S)-3-hydroxy-4-[(S)-3-methyl-2-((S)-4-methyl-2-phenylacetylaminopentanoylamino)butyrylamino]-5-phenylpentanoylamino}-3-methylpentanoylamino)-3-methylbutyrate] (PhAc-LV[Ahppa(3S,4S)]IV-OBn) | – | 2.1e-09 |
| CCC(CC)NC(=O)[C@@H](NC(=O)C[C@H](O)[C@H](Cc1ccccc1)NC(=O)[C@@H](NC(=O)[C@H](CC(C)C)NC(=O)CC(C)C)C(C)C)[C@@H](C)CC [Compound 42, N-[(1S,2S)-1-(1-ethylpropylcarbamoyl)-2-methylbutyl]-(2S,5S)-3-hydroxy-4-{(S)-3-methyl-2-[(S)-4-methyl-2-(3-methylbutyrylamino)-pentanoylamino]butyrylamino}-5-phenylpentanamide] | – | 1.3e-09 |

Further lines, results first:

| IC50 (recombinant human renin) [nM] | IC50 [1] [M] | Structure (SMILES) |
| --- | --- | --- |
| > 30000 | 7.9e-08 | CC[C@H](C)[C@H](NC(=O)C[C@H](O)[C@H](Cc1ccccc1)NC(=O)[C@@H](NC(=O)CCc1ccccc1)C(C)C)C(=O)N[C@H](C(=O)OCc1ccccc1)C(C)C [Compound 1, benzly (S)-2-((2S,3S)-2-{(3S,4S)-3-hydroxy-4-[(S)-3-methyl-2-(3-phenylpropionylamino)butyrylamino]-5-phenylpentanoylamino}-3-methylpentanoylamino)-3-methylbutyrate] |
| > 30000 | 3.9e-08 | CC[C@H](C)[C@H](NC(=O)C[C@H](O)[C@H](Cc1ccccc1)NC(=O)[C@@H](NC(=O)Cc1ccc(OC)cc1)C(C)C)C(=O)N[C@H](C(=O)O)C(C)C [Compound 15, (S)-2-[(2S,3S)-2-((3S,4S)-3-hydroxy-4-{(S)-2-[2-(4-methoxyphenyl)-acetylamino]-3-methylbutyrylamino}-5-phenylpentanoylamino)-3-methylpentanoylamino]-3-methylbutyric acid] |
| > 30000 | 1.6e-07 | CC[C@H](C)[C@H](NC(=O)C[C@H](O)[C@H](Cc1ccccc1)NC(=O)[C@@H](NC(=O)Cc1ccccc1OC)C(C)C)C(=O)N[C@H](C(=O)O)C(C)C [Compound 28, (S)-2-[(2S,3S)-2-((3S,4S)-3-hydroxy-4-{(S)-2-[2-(2-methoxyphenyl)-acetylamino]-3-methylbutyrylamino}-5-phenylpentanoylamino)-3-methylpentanoylamino]-3-methylbutyric acid] |
| – | 7.1e-08 | CC[C@H](C)[C@H](NC(=O)C[C@H](O)[C@H](Cc1ccccc1)NC(=O)[C@@H](NC(=O)CCCc1ccccc1)C(C)C)C(=O)N[C@H](C(=O)OCc1ccccc1)C(C)C [Compound 2, benzly (S)-2-((2S,3S)-2-{(3S,4S)-3-hydroxy-4-[(S)-3-methyl-2-(4-phenylbutyrylamino)butyrylamino]-5-phenylpentanoylamino}-3-methylpentanoylamino)-3-methylbutyrate] |
